Test results published in patent US8188272B2, “Fused heterocyclic compounds useful as kinase modulators” (Bristol-Myers Squibb Company, priority 2007, dated 2012).
Values belong to the compound of their own block, whether it stands above or below them.

Experiments:
human recombinant Btk = target: T1, human recombinant Btk (Homo sapiens, UniProt Q06187); test: Human Recombinant Btk Enzyme Assay; assay type: biochemical; details: human recombinant Btk 1 nM, ATP 20 μM, 60 min room temperature, Caliper LabChip
T1 construct: purchased Invitrogen Corporation
Experimental: Human Recombinant Btk Enzyme Assay
To V-bottom 384-well plates were added test compounds, human recombinant Btk (1 nM, Invitrogen Corporation), fluoresceinated peptide (1.5 μM), ATP (20 μM), and assay buffer (20 mM HEPES pH 7.4, 10 mM MgCl2, 0.015% Brij35 and 4 mM DTT in 1.6% DMSO), with a final volume of 30 μL. After incubating at room temperature for 60 min, the reaction was terminated by adding 45 μl of 35 mM EDTA to each sample. The reaction mixture was analyzed on the Caliper LabChip 3000 (Caliper, Hopkinton, Mass.) by electrophoretic separation of the fluorescent substrate and phosphorylated product. Inhibition data were calculated by comparison to no enzyme control reactions for 100% inhibition and no inhibitor controls for 0% inhibition. Dose response curves were generated to determine the concentration required inhibiting 50% of kinase activity (IC50). Compounds were dissolved at 10 mM in dimethylsulfoxide (DMSO) and evaluated at eleven concentrations.
Using this assay, the following IC50 values derived by non-linear regression analysis were determined and compared to those values of certain compounds in US 2007/0078136 and US 2008/0045536.

Ramos RA1 B cells = test: Ramos FLIPR Assay (intracellular calcium); assay type: cell-based; details: Homo sapiens; Ramos RA1 B cells stimulated with F(ab')2 anti-IgM/IgG, peak intracellular calcium; read-out: Human Ramos Cell FLIPR (IC50 uM)
Experimental: Ramos RA1 B cells (ATCC CRL-1596) at a density of 2×10^6 cells/ml in RPMI minus phenol red (Invitrogen 11835-030) and 50 mM HEPES (Invitrogen 15630-130) containing 0.1% BSA (Sigma A8577) were added to one half volume of calcium loading buffer (BD bulk kit for probenecid sensitive assays, # 640177) and incubated at room temperature in the dark for 1 hour. Dye-loaded cells were pelleted (Beckmann GS-CKR, 1200 rpm, RT, 5 minutes) and resuspended in RT RPMI minus phenol red with 50 mM HEPES and 10% FBS to a density of 1×10^6 cells/ml. 150 μl aliquots (150,000/well) were plated into 96 well poly-D-lysine coated assay plates (BD 35 4640) and briefly centrifuged (Beckmann GS-CKR 800 rpm, 5 minutes, without brake). 50 μl compound dilutions in 0.4% DMSO/RPMI minus phenol red+50 mM HEPES+10% FBS were added to the wells and the plate was incubated at RT in the dark for 1 hour. Assay plate was briefly centrifuged as above prior to measuring calcium levels.
Using the FLIPR1 (Molecular devices), cells were stimulated by adding 50 μl 200 μg/ml F(ab′)2 anti-IgM/IgG (Jackson ImmunoResearch 109-006-127) diluted in 1X HBSS (Invitrogen 14025-076), 50 mM HEPES, 0.1% BSA. Changes in intracellular calcium concentrations were measured for 180 seconds and percent inhibition was determined relative to peak calcium levels seen in the presence of F(ab′)2 anti-IgM/IgG only.

Mouse splenic B cells = test: Mouse Splenic B Cell Proliferation Assay; assay type: cell-based; details: Balb/c splenic B cells stimulated with anti-mouse IgG IgM F(ab')2 10 μg/ml, 72 hours, 3[H]-thymidine
Experimental: Mouse Splenic B Cell Proliferation Assay
Spleens from Balb/c mice (<12 weeks old) were mashed through screens and red blood cells were removed from splenocytes with RBC lysing buffer (Sigma-Aldrich Chemical Co, —St. Louis, Mo.). T cells were depleted by incubation on nylon wool columns (Wako, Richmond, Va.). Resulting splenic B cells prepared this way were routinely >90% CD19^+ as measured by FACS analysis. B cells (1×10^5 cells per well) were added to serial dilutions of compounds in triplicate in 96-well flat-bottom plates in RPMI 1640 (Invitrogen, Grand Island, N.Y.), supplemented with 10% heat-inactivated fetal calf serum (FCS, Summit Biotechnology, Fort Collins, Colo.), containing 1% L-glutamine (Invitrogen), […] gentamicin (Invitrogen) and 5×10^−5M β-mercaptoethanol (Sigma-Aldrich). Cells were stimulated with 10 μg/ml of Affinipure F(ab′)2 fragment goat anti-mouse IgG IgM (Jackson Immunoresearch, West Grove, Pa.). Cultures were incubated for 72 hours, and pulsed for the last 6 hours with one μCi/well of ^3[H]-thymidine (PerkinElmer, Boston, Mass.) prior to harvest on a Packard cell harvester (PerkinElmer), and counted by liquid scintillation on a Packard TopCount NXT (PerkinElmer).

Human tonsillar B cells = test: Human Tonsillar B Cell Proliferation Assay; assay type: cell-based; details: tonsillar B cells stimulated with anti Human IgG+IgM F(ab')2 40 μg/ml, 72 hours, 3[H]-thymidine
Text: Human Tonsillar B Cell Proliferation Assay
Tonsils were excised from patients undergoing routine tonsillectomy. Tonsil tissue was minced, mashed through screens and mononuclear cells were isolated on ficoll density gradients (Lymphocyte Separation Media; Mediatech Inc., Herndon, Va.). T cells were depleted from mononuclear cells by rosetting with sheep red blood cells (SRBC, Colorado Serum Company; Denver, Colo.). Tonsillar B cells prepared by this method were routinely >95% CD19^+ as measured by FACS analysis. B cells (1×10^5 cells per well) were added to serial dilutions of compounds in triplicate in 96-well flat-bottom plates in RPMI 1640, (Invitrogen, Grand Island, N.Y.), supplemented with 10% heat-inactivated fetal calf serum (FCS, Summit Biotechnology, Fort Collins, Colo.), and containing antibiotic/antimycotic (Invitrogen, 1:100 dilution) and gentamicin (Invitrogen, 5 μg/ml). Cells were stimulated with 40 μg/ml AffinPure F(ab′)2 Fragment Goat anti Human IgG+IgM (Jackson Immunoresearch, West Grove, Pa.) in a total volume of 0.2 ml. Cultures were incubated for 72 hours, and pulsed for the last 6 hours with one μCi/well of ^3[H]-thymidine (PerkinElmer, Boston, Mass.) prior to harvest on a Packard cell harvester (PerkinElmer), and counted by liquid scintillation on a Packard TopCount NXT (PerkinElmer).

T1 sequence (Q06187 whole entry): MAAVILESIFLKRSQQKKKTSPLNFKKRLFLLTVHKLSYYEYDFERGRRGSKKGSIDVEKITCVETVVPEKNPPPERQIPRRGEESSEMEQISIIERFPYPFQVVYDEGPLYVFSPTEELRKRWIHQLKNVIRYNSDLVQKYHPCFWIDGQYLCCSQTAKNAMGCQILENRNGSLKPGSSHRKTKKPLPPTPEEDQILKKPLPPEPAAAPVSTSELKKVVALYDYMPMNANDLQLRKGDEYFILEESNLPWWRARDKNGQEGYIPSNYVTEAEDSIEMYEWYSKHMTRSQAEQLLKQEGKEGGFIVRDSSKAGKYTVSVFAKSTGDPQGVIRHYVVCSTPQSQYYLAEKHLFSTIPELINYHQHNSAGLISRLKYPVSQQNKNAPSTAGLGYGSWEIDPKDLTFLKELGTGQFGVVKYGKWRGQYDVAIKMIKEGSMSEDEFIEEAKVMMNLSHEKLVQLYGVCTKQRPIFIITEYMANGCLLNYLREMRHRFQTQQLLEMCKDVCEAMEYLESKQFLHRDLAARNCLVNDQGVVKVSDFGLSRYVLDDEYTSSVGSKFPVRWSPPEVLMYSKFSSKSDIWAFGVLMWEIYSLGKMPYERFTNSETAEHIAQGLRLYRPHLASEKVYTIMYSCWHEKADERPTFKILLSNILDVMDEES

IC50 (human recombinant Btk): > 50 µM
SMILES: Cc1c(N[C@H]2CC[C@H](N)CC2)nn2ccnc2c1Nc1ccc(C(=O)N2CCOCC2)cc1 [III(18) in US 2008/0045536, reference compound]

IC50 (human recombinant Btk): 0.8 µM
IC50 (Ramos RA1 B cells): 4.08 µM
SMILES: CC(C)(C)c1ccc(C(=O)N[C@H]2CCCN(c3nc(Nc4ccc(C(=O)N5CCOCC5)cc4)c4nccn4n3)C2)cc1 [Example 2, (S)-4-tert-Butyl-N-(1-(4-(4-(morpholine-4-carbonyl)phenylamino)imidazo[1,2-f][1,2,4]triazin-2-yl)piperidin-3-yl)benzamide]

IC50 (human recombinant Btk): 0.014 µM
SMILES: Nc1cnc2c(Nc3ccc(C(=O)N4CCOCC4)cc3)nc(N3CCC[C@@H](NC(=O)c4cc5ccccc5[nH]4)C3)nn12 [Example 28, (R)—N-(1-(7-Amino-4-(4-(morpholine-4-carbonyl)phenylamino)imidazo[1,2-f][1,2,4]triazin-2-yl)piperidin-3-yl)-1H-indole-2-carboxamide]

IC50 (human recombinant Btk): 1.96 µM
SMILES: O=C(c1ccc(Nc2cc(N[C@H]3CCCNC3)nn3ccnc23)cc1)N1CCOCC1 [V(10) in US 2008/0045536, reference compound]

IC50 (Ramos RA1 B cells): 0.015 µM
SMILES: CC(C)(C)c1ccc(C(=O)N[C@@H]2CCCN(c3nc(Nc4ccc(C(=O)N5CCOCC5)cc4)c4ncc(N)n4n3)C2)cc1 [Example 26, (R)—N-(1-(7-Amino-4-(4-(morpholine-4-carbonyl)phenylamino)imidazo[1,2-f][1,2,4]triazin-2-yl)piperidin-3-yl)-4-tert-butylbenzamide]
IC50 (Mouse splenic B cells): 0.08 µM

IC50 (human recombinant Btk): 0.228 µM
SMILES: N[C@H]1CC[C@H](Nc2cc(Nc3ccc4ccccc4n3)c3nccn3n2)CC1 [I(159) in US 2008/0045536, reference compound]

IC50 (human recombinant Btk): 0.2 µM
SMILES: O=C(N[C@@H]1CCCN(c2nc(Nc3ccc(C(=O)N4CCOCC4)cc3)c3nccn3n2)C1)OCc1ccccc1 [Example 4, (R)-Benzyl 1-(4-(4-(morpholine-4-carbonyl)phenylamino)imidazo[1,2-f][1,2,4]triazin-2-yl)piperidin-3-ylcarbamate]

IC50 (Ramos RA1 B cells): 0.26 µM
SMILES: CC(C)(C)c1ccc(C(=O)N[C@@H]2CCCN(c3nc(Nc4ccc(C(=O)N5CCOCC5)cc4)c4nccn4n3)C2)cc1 [Example 1, (R)-4-tert-Butyl-N-(1-(4-(4-(morpholine-4-carbonyl)phenylamino)imidazo[1,2-f][1,2,4]triazin-2-yl)piperidin-3-yl)benzamide]

IC50 (human recombinant Btk): 1.76 µM
SMILES: CCOc1ccc(Nc2nc(N[C@H]3CC[C@H](N)CC3)nn3ccnc23)cc1 [XIII in US 2007/0078136, reference compound]

Further lines, the compound ahead of its results:

SMILES: CC(C)(C)c1ccc(C(=O)N[C@@H]2CCCN(c3nc(Nc4ccc(C(=O)N5CCNCC5)cc4)c4nccn4n3)C2)cc1 [Example 11, (R)-4-tert-Butyl-N-(1-(4-(4-(piperazine-1-carbonyl)phenylamino)imidazo[1,2-f][1,2,4]triazin-2-yl)piperidin-3-yl)benzamide]
IC50 (human recombinant Btk): 0.013 µM
IC50 (Ramos RA1 B cells): 0.028 µM

SMILES: NC(=O)c1cnc2c(Nc3ccc(C(=O)N4CCOCC4)cc3)nc(N3CCC[C@@H](NC(=O)c4ccccc4)C3)nn12 [Example 30, (R)-2-(3-Benzamidopiperidin-1-yl)-4-(4-(morpholine-4-carbonyl)phenylamino)imidazo[1,2-f][1,2,4]-triazine-7-carboxamide]
IC50 (Mouse splenic B cells): 0.98 µM

SMILES: CC(C)(C)c1ccc(C(=O)N[C@@H]2CCCN(c3nc(Nc4ccc(C(N)=O)cc4)c4nccn4n3)C2)cc1 [Example 10, (R)-4-tert-Butyl-N-(1-(4-(4-carbamoylphenylamino)imidazo[1,2-f][1,2,4]triazin-2-yl)piperidin-3-yl)benzamide]
IC50 (Mouse splenic B cells): 0.33 µM

SMILES: CC(C)(C)c1ccc(C(=O)N[C@@H]2CCCN(c3nc(Nc4ccc(C(=O)N[C@H]5CCNC5)cc4)c4nccn4n3)C2)cc1 [Example 12, 4-tert-Butyl-N—((R)-1-(4-(4-((R)-pyrrolidin-3-ylcarbamoyl)phenylamino)imidazo[1,2-f][1,2,4]triazin-2-yl)piperidin-3-yl)benzamide]
IC50 (Human tonsillar B cells): 1.58 µM

SMILES: CN1CCN(C(=O)c2ccc(Nc3nc(N4CCC[C@@H](NC(=O)c5ccc(C(C)(C)C)cc5)C4)nn4ccnc34)cc2)CC1 [Example 5, (R)-4-tert-Butyl-N-(1-(4-(4-(4-methylpiperazine-1-carbonyl)phenylamino)imidazo[1,2-f][1,2,4]triazin-2-yl)piperidin-3-yl)benzamide]
IC50 (Human tonsillar B cells): 0.037 µM

SMILES: CC(C)(C)c1ccc(C(=O)N[C@@H]2CCCN(c3nc(Nc4ccc(C(=O)N5CCN(CCO)CC5)cc4)c4nccn4n3)C2)cc1 [Example 6, (R)-4-tert-Butyl-N-(1-(4-(4-(4-(2-hydroxyethyl)piperazine-1-carbonyl)phenylamino)imidazo[1,2-f][1,2,4]triazin-2-yl)piperidin-3-yl)benzamide]
IC50 (Human tonsillar B cells): 0.17 µM

SMILES: O=C(N[C@@H]1CCCN(c2nc(Nc3ccc(C(=O)N4CCOCC4)cc3)c3nccn3n2)C1)c1ccccc1 [Example 36, (R)—N-(1-(4-(4-(morpholine-4-carbonyl)phenylamino)imidazo[1,2-f][1,2,4]triazin-2-yl)piperidin-3-yl)benzamide]
IC50 (Human tonsillar B cells): 0.45 µM

SMILES: CC(C)(C)c1ccc(C(=O)N[C@@H]2CCCN(c3nc(Nc4ccc(C(=O)N5CC(O)C5)cc4)c4nccn4n3)C2)cc1 [Example 20]
IC50 (human recombinant Btk): 0.081 µM

SMILES: CC(C)(C)c1ccc(C(=O)N[C@@H]2CCCN(c3nc(Nc4ccc(C(=O)N5CCOCC5)cc4)c4ncc(C#N)n4n3)C2)cc1 [Example 32, (R)-4-tert-Butyl-N-(1-(7-cyano-4-(4-(morpholine-4-carbonyl)phenylamino)imidazo[1,2-f][1,2,4]triazin-2-yl)piperidin-3-yl)benzamide]
IC50 (human recombinant Btk): 0.1 µM
IC50 (Mouse splenic B cells): 0.31 µM

SMILES: CC(C)(C)c1ccc(C(=O)N[C@@H]2CCCN(c3nc(Nc4ccc(C(=O)N[C@@H]5CCNC5)cc4)c4nccn4n3)C2)cc1 [Example 9, 4-tert-Butyl-N—((R)-1-(4-(4-((S)-pyrrolidin-3-ylcarbamoyl)phenylamino)imidazo[1,2-f][1,2,4]triazin-2-yl)piperidin-3-yl)benzamide]
IC50 (Human tonsillar B cells): 1.91 µM
IC50 (Mouse splenic B cells): 1.29 µM

SMILES: NCc1cnc2c(Nc3ccc(C(=O)N4CCOCC4)cc3)nc(N3CCC[C@@H](NC(=O)c4cc5ccccc5[nH]4)C3)nn12 [Example 35, (R)—N-(1-(7-(Aminomethyl)-4-(4-(morpholine-4-carbonyl)phenylamino)imidazo[1,2-f][1,2,4]triazin-2-yl)piperidin-3-yl)-1H-indole-2-carboxamide]
IC50 (Ramos RA1 B cells): 1.24 µM
